Where two headings read alike, the source gives them in different places.
Target: canine TRPM8 (Canis lupus familiaris, UniProt Q1A7N1)
Assay: In Vitro Canine TRPM8 Functional Assay (Ca2+ fluorescence, icilin activation)
Format: cell-based
Settings: for IC50: read-out: IC50
Procedure, shortened: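 Cells (HEK293, stable canine TRPM8) are seeded 24 h before assay. They are then dye-loaded with Calcium 3 at 37 °C followed by room temperature. Compound is added and monitored for 5 min, after which icilin (~80% maximal response) is added.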

[1] = HEK293 cells stably expressing canine TRPM8, icilin activation, eight-point dose-response
[2] = compound at 0.2 μM, canine TRPM8, icilin activation, read-out: % Inh @ 0.2
[3] = 0.2 μM compound, HEK293 cells stably expressing canine TRPM8, icilin activation, read-out: % Inh @ 0.2
[4] = HEK293 cells stably expressing canine TRPM8, icilin activation, average of two or more determinations

Sequence of canine TRPM8 (Q1A7N1 1-1104): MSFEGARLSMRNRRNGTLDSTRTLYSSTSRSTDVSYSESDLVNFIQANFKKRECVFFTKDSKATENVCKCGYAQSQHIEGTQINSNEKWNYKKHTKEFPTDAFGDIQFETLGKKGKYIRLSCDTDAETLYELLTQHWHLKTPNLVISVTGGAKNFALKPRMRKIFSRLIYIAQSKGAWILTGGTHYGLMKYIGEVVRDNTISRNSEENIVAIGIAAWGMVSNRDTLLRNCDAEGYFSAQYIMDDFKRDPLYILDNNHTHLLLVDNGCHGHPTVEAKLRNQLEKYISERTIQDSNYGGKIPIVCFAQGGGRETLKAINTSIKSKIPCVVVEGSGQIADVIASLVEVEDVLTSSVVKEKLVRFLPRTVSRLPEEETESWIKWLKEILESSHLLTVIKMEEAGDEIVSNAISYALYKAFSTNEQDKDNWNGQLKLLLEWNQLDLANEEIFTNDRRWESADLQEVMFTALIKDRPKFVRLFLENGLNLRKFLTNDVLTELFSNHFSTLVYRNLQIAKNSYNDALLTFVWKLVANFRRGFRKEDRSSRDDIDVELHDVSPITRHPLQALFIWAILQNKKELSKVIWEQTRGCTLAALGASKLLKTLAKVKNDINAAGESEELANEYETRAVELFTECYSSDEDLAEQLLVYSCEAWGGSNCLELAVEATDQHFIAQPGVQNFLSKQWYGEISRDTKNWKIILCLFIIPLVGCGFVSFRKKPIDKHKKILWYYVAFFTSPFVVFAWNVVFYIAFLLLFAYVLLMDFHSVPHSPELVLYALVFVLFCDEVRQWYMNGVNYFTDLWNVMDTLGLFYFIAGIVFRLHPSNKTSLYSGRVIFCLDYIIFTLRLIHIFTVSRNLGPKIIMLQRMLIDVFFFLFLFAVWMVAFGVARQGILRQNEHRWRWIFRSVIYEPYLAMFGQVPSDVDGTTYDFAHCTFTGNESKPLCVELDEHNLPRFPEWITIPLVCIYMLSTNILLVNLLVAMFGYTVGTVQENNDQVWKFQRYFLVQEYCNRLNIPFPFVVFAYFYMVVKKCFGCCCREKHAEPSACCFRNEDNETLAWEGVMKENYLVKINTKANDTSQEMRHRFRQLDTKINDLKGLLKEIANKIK

SMILES | IC50 [1] [µM] | inhibition at 0.2 µM [2] [%] | inhibition at 0.2 µM [3] [%] | IC50 [4] [µM] | also measured
CCS(=O)(=O)N(Cc1cccc(OC)c1F)c1sc2ccccc2c1C(C)(C)O [Compound 776, N-(2-Fluoro-3-methoxy-benzyl)-N-[3-(1-hydroxy-1-methyl-ethyl)-benzo[b]thiophen-2-yl]-ethanesulfonamide] | 0.0067 | 95 | – | – | –
Cc1c(N(CCC2CC2)S(=O)(=O)c2ccc(C(=O)N3CCN(C)CC3)cc2)sc2ccccc12 [Compound 777, N-(2-Cyclopropyl-ethyl)-N-(3-methyl-benzo[b]thiophen-2-yl)-4-(4-methyl-piperazine-1-carbonyl)-benzenesulfonamide] | – | 56 | – | – | –
Cc1c(N(Cc2cccc(OC(F)(F)F)c2)S(=O)(=O)CCCn2ccnc2)sc2ccccc12 [Compound 778, N-(3-Methyl-benzo[b]thiophen-2-yl)-N-(3-trifluoromethoxy-benzyl)-3-imidazol-1-yl-propane-1-sulfonamide] | 0.107 | 87 | – | – | –
Cc1c(N(Cc2ccc(F)c(C(F)(F)F)c2)S(=O)(=O)CCCCn2ccnc2)sc2ccccc12 [Compound 779, N-(4-Fluoro-3-trifluoromethyl-benzyl)-N-(3-methyl-benzo[b]thiophen-2-yl)-4-(imidazol-1-yl)-butane-1-sulfonamide] | 0.0487 | 79 | – | – | –
CS(=O)(=O)Nc1ccc(S(=O)(=O)N(Cc2ccc(F)c(C(F)(F)F)c2)c2sc3ccccc3c2Cl)c(O)c1 [Compound 780, N-(3-Chloro-benzo[b]thiophen-2-yl)-N-(4-fluoro-3-trifluoromethyl-benzyl)-2-hydroxy-4-methanesulfonylamino-benzenesulfonamide] | 0.145 | 72 | – | – | –
CC(C)(O)c1c(N(Cc2ccc(OC(F)(F)F)cc2)S(=O)(=O)c2ccc(C(=O)[O-])cc2)sc2ccccc12.[Na+] [Compound 781, Sodium, N-(3-(1-Hydroxy-1-methyl-ethyl)-benzo[b]thiophen-2-yl)-N-(4-trifluoromethoxy)benzyl-4-carboxy-benzenesulfonamide] | 0.003 | – | – | – | % Inh @ 0.2 (μM) (compound at 0.2 μM, canine TRPM8, icilin activation): 102%
Cc1c(N(CCC2CC2)S(=O)(=O)c2ccc(C(=O)N[C@H]3CCNC3)cc2)sc2ccccc12 [Compound 782, (S)-4-[(2-Cyclopropyl-ethyl)-(3-methyl-benzo[b]thiophen-2-yl)-sulfamoyl]-N-pyrrolidin-3-yl-benzamide] | – | 33 | – | – | –
Cc1c(N(CCC2CC2)S(=O)(=O)c2ccc(C(=O)N[C@@H]3CCNC3)cc2)sc2ccccc12 [Compound 783, (R)-4-[(2-Cyclopropyl-ethyl)-(3-methyl-benzo[b]thiophen-2-yl)-sulfamoyl]-N-pyrrolidin-3-yl-benzamide] | – | 38 | – | – | –
Cc1c(N(Cc2ccc(F)c(C(F)(F)F)c2)S(=O)(=O)c2ccc(-c3nsc(=O)[nH]3)cc2)sc2ccccc12 [Compound 784, N-(3-Methyl-benzo[b]thiophen-2-yl)-N-(4-fluoro-3-trifluoromethyl-benzyl)-4-(5-oxo-4,5-dihydro-[1,2,4]thiadiazol-3-yl)-benzenesulfonamide] | 0.0033 | 102 | – | – | –
Cc1c(N(Cc2ccc(OC(F)(F)F)cc2)S(=O)(=O)c2ccc(-c3nnn[nH]3)cc2)sc2ccccc12 [Compound 785, N-(3-Methyl-benzo[b]thiophen-2-yl)-N-(4-trifluoromethoxy-benzyl)-4-(1H-tetrazol-5-yl)-benzenesulfonamide] | 0.0022 | 102 | – | – | –
Cc1c(N(CCCCC(F)(F)F)S(=O)(=O)c2ccc(N(C)C)nc2)sc2ccccc12 [Compound 787] | 0.0149 | 102 | – | – | –
Cc1c(N(CCCCC(F)(F)F)S(=O)(=O)c2cnccc2N2CCOCC2)sc2ccccc12 [Compound 788, N-(3-Methyl-benzo[b]thiophen-2-yl)-N-(5,5,5-trifluoro-pentyl)-4-morpholino-3-pyridyl-sulfonamide] | 0.0259 | – | – | – | –
Cc1c(N(CCCCC(F)(F)F)S(=O)(=O)c2ccc(N3CCOCC3)nc2)sc2ccccc12 [Compound 788] | – | 100 | – | – | –
Cc1c(N(Cc2ccc(OC(F)(F)F)cc2)S(=O)(=O)c2ccc(N(C)C)nc2)sc2ccccc12 [Compound 789] | 0.0117 | 102 | – | – | –
Cc1c(N(Cc2ccc(OC(F)(F)F)cc2)S(=O)(=O)c2ccc(N3CCOCC3)nc2)sc2ccccc12 [Compound 790] | 0.022 | 101 | – | – | –
COC(=O)CS(=O)(=O)N(Cc1ccc(F)c(C(F)(F)F)c1)c1sc2ccccc2c1C [Compound 791, N-(4-Fluoro-3-trifluoromethyl-benzyl)-N-(3-methyl-benzo[b]thiophen-2-yl)-carbomethoxy-methanesulfonamide] | 0.0231 | 95 | – | – | –
Cc1c(N(Cc2ccc(F)c(C(F)(F)F)c2)S(=O)(=O)CC(=O)O)sc2ccccc12 [Compound 792, N-(4-Fluoro-3-trifluoromethyl-benzyl)-N-(3-methyl-benzo[b]thiophen-2-yl)-carboxy-methanesulfonamide] | – | 23 | – | – | –
Cc1c(N(Cc2ccc(F)c(C(F)(F)F)c2)S(=O)(=O)CCO)sc2ccccc12 [Compound 793, N-(4-Fluoro-3-trifluoromethyl-benzyl)-N-(3-methyl-benzo[b]thiophen-2-yl)-2-hydroxy-ethanesulfonamide] | 0.0155 | 102 | – | – | –
COC(=O)CCS(=O)(=O)N(Cc1ccc(OC(F)(F)F)cc1)c1sc2ccccc2c1C [Compound 794, N-(3-Methyl-benzo[b]thiophen-2-yl)-N-(4-trifluoromethoxy-benzyl)-2-carbomethoxy-ethanesulfonamide] | 0.0294 | 101 | – | – | –
Cc1c(N(Cc2ccc(OC(F)(F)F)cc2)S(=O)(=O)CCC(=O)O)sc2ccccc12 [Compound 795, N-(3-Methyl-benzo[b]thiophen-2-yl)-N-(4-trifluoromethoxy-benzyl)-2-carboxy-ethanesulfonamide] | – | – | 100 | 0.0246 | –
Cc1c(N(Cc2ccc(F)c(C(F)(F)F)c2)S(=O)(=O)CCBr)sc2ccccc12 [Compound 797, N-(4-Fluoro-3-trifluoromethyl-benzyl)-N-(3-methyl-benzo[b]thiophen-2-yl)-2-bromo-ethane-1-sulfonamide] | – | – | – | 0.0048 | inhibition at 0.2 µM (HEK293, read-out: % Inh @ 0.2 (μM)): 102%

More lines, main results first:

IC50 [1] [µM] | inhibition at 0.2 µM [2] [%] | inhibition at 0.2 µM [3] [%] | IC50 [4] [µM] | SMILES | also measured
– | – | 101 | 0.0242 | Cc1c(N(Cc2ccc(OC(F)(F)F)cc2)S(=O)(=O)CCC(C)(C)O)sc2ccccc12 [Compound 796, N-(3-Methyl-benzo[b]thiophen-2-yl)-N-(4-trifluoromethoxy-benzyl)-3-hydroxy-3-methyl-butane-1-sulfonamide] | –
– | – | 102 | 0.0039 | Cc1c(N(Cc2ccc(OC(F)(F)F)cc2)S(=O)(=O)c2ccc(N(C)C)cc2)sc2ccccc12 [Compound 799, N-(3-Methyl-benzo[b]thiophen-2-yl)-N-(4-trifluoromethoxy-benzyl)-4-dimethylamino-benzenesulfonamide] | –
– | – | 102 | 0.0068 | Cc1c(N(Cc2ccc(OC(F)(F)F)cc2)S(=O)(=O)c2ccc(N3CCOCC3)cc2)sc2ccccc12 [Compound 800, N-(3-Methyl-benzo[b]thiophen-2-yl)-N-(4-trifluoromethoxy-benzyl)-4-morpholino-benzenesulfonamide] | –
– | – | 102 | 0.0028 | Cc1c(N(Cc2ccc(OC(F)(F)F)cc2)S(=O)(=O)c2ccc(-c3noc(=O)[nH]3)cc2)sc2ccccc12 [Compound 801, N-(3-Methyl-benzo[b]thiophen-2-yl)-N-(4-trifluoromethoxy-benzyl)-4-(5-oxo-4,5-dihydro-[1,2,4]oxadiazol-3-yl)-benzenesulfonamide] | –
– | – | 101 | 0.008 | CCS(=O)(=O)N(Cc1cc(F)c(F)c(OC)c1F)c1sc2ccccc2c1C(C)(C)O [Compound 802, N-[3-(1-Hydroxy-1-methyl-ethyl)-benzo[b]thiophen-2-yl]-N-(2,4,5-trifluoro-3-methoxy-benzyl)-ethanesulfonamide] | –
– | – | 101 | 0.0308 | C=C(C)c1c(N(Cc2cc(F)c(F)c(OC)c2F)S(=O)(=O)CC)sc2ccccc12 [Compound 803, N-(3-Isopropenyl-benzo[b]thiophen-2-yl)-N-(2,4,5-trifluoro-3-methoxy-benzyl)-ethanesulfonamide] | –
– | – | – | 0.0111 | Cc1c(N(CCC2CC2)S(=O)(=O)c2cnccc2-c2nnn[nH]2)sc2ccccc12 [Compound 804, N-(3-Methyl-benzo[b]thiophen-2-yl)-N-(cyclopropyl-ethyl)-4-(1H-tetrazol-5-yl)-pyridin-3-ylsulfonamide] | –
– | – | 102 | – | Cc1c(N(CCC2CC2)S(=O)(=O)c2ccc(-c3nnn[nH]3)nc2)sc2ccccc12 [Compound 804] | –
– | – | 103 | 0.0022 | Cc1c(N(Cc2ccc(OC(F)(F)F)cc2)S(=O)(=O)c2ccc(-c3nnn[nH]3)nc2)sc2ccccc12 [Compound 805] | –
– | – | – | 0.013 | Cc1c(N(CCCCC(F)(F)F)S(=O)(=O)c2cnccc2-c2nnn[nH]2)sc2ccccc12 [Compound 806, N-(3-Methyl-benzo[b]thiophen-2-yl)-N-(5,5,5-trifluoro-pentyl)-4-(1H-tetrazol-5-yl)-pyridin-3-ylsulfonamide] | –
– | – | 102 | – | Cc1c(N(CCCCC(F)(F)F)S(=O)(=O)c2ccc(-c3nnn[nH]3)nc2)sc2ccccc12 [Compound 806] | –
– | – | 103 | 0.006 | Cc1c(N(CCC2CC2)S(=O)(=O)c2ccc(-c3noc(=O)[nH]3)nc2)sc2ccccc12 [Compound 807] | –
– | – | – | 0.0007 | Cc1c(N(Cc2ccc(OC(F)(F)F)cc2)S(=O)(=O)c2cnccc2-c2noc(=O)[nH]2)sc2ccccc12 [Compound 808, N-(3-Methyl-benzo[b]thiophen-2-yl)-N-(4-trifluoromethoxy-benzyl)-4-(5-oxo-4,5-dihydro-[1,2,4]oxadiazol-3-yl)-pyrid-3-ylsulfonamide] | –

Reference: patent US9434711B2 (Janssen Pharmaceutica, NV, priority 2007, dated 2016)
